# Measured values taken from patent publication US20100286186A1, “NOVEL DICARBOXYLIC ACID LINKED AMINO ACID AND PEPTIDE PRODRUGS OF OPIOIDS AND USES THEREOF” (Shire LLC, priority 2009, published 2010).
# Assays:
# gut motility in the rat = assay: Charcoal propulsion test of GI motility in the rat; type: in vivo; conditions: oral
# Experimental: Test treatments were administered to groups of up to 10 rats fasted overnight prior to the test.
# Test treatments were administered orally 60 minutes prior to a 2.0 mL oral dose of a 10% suspension of charcoal in 5% gum arabic. Thirty minutes after dosing with charcoal, the rats were sacrificed and the entire gastro-intestinal tract quickly and carefully removed. The distance the charcoal meal had traveled from the pyloric sphincter toward the caecum was measured and expressed as a percentage of both the total gut length and the length of the small intestine.
# [1] = Plasma pharmacokinetics of meptazinol dicarboxylate linked prodrugs after oral gavage to dogs; type: in vivo, dog; conditions: dog, 1 mg meptazinol base equivalents/kg; for systemic levels of meptazinol versus expected Cmax after the drug itself: oral gavage; for Dog Cmax (plasma meptazinol): meptazinol level
# [2] = Plasma pharmacokinetics of meptazinol dicarboxylate linked prodrugs after oral gavage to cynomolgus monkeys; type: in vivo, cynomolgus monkey; conditions: 1 mg meptazinol base equivalents/kg; for Monkey Cmax (plasma meptazinol) / Monkey Cmax (plasma prodrug levels, in brackets): cynomolgus monkey, oral gavage of prodrug; for Monkey Cmax (plasma meptazinol): meptazinol level; for Monkey Cmax (plasma prodrug levels, in brackets): prodrug level, BLQ = below 0.5 ng/mL; for improvement in systemic levels of meptazinol: monkey, oral gavage
# [3] = Stability of meptazinol dicarboxylate bridged amino acid prodrugs in simulated gastric and intestinal juice and pH 7.4 buffer; type: physicochemical; conditions: for 2 h stability in pH7.4 buffer (37° C.), Conversion to meptazinol: pH 7.4 buffer
# From the text: Initially the inherent chemical and biological stability of various dicarboxylate bridged amino acid prodrugs of meptazinol, was investigated under the conditions prevailing in the GI tract. Premature hydrolysis of the prodrug in the gut lumen prior to absorption would reduce the opportunity for transient protection of the drug during its passage though the liver and the desired reduction in first pass metabolism.
# The remaining concentrations of the prodrug (and also drug released) were then assayed by HPLC. Additionally their chemical stability was evaluated in pH 7.4 buffer for 2 h 37° C.
# [4] = oral gavage of prodrug, prodrug level, BLQ = below 0.5 ng/mL
compound,measurement,setting,value
COc1ccc2c3c1O[C@H]1[C@@H](O)C=C[C@H]4[C@@H](C2)N(C)CC[C@@]341 [Codeine phosphate hemihydrate],"% change from vehicle-treated animals, small intestine",gut motility in the rat; 10 mg/kg,−22.0%
same,"% change from vehicle-treated animals, total gut length",gut motility in the rat; 10 mg/kg,−21.7%
same,"% change from vehicle-treated animals, small intestine",gut motility in the rat; 30 mg/kg,−32.1%
same,"% change from vehicle-treated animals, total gut length",gut motility in the rat; 30 mg/kg,−32.0%
same,"% change from vehicle-treated animals, small intestine",gut motility in the rat; 100 mg/kg,−35.1%
same,"% change from vehicle-treated animals, total gut length",gut motility in the rat; 100 mg/kg,−34.9%
"COc1ccc2c3c1O[C@H]1[C@@H](O)CC[C@H]4[C@@H](C2)N(C)CC[C@@]341.O=C(O)C(O)C(O)C(=O)O [Dihydrocodeine Hydrogen Tartrate, reference compound]","% change from vehicle-treated animals, small intestine",gut motility in the rat; 10 mg/kg,−17.6%
same,"% change from vehicle-treated animals, total gut length",gut motility in the rat; 10 mg/kg,−16.3%
same,"% change from vehicle-treated animals, small intestine",gut motility in the rat; 30 mg/kg,−29.8%
same,"% change from vehicle-treated animals, total gut length",gut motility in the rat; 30 mg/kg,−30.5%
same,"% change from vehicle-treated animals, small intestine",gut motility in the rat; 100 mg/kg,−56.4%
same,"% change from vehicle-treated animals, total gut length",gut motility in the rat; 100 mg/kg,−57.0%
same,"% change from vehicle-treated animals, small intestine",gut motility in the rat; 300 mg/kg,−67.7%
same,"% change from vehicle-treated animals, total gut length",gut motility in the rat; 300 mg/kg,−68.0%
"CCC1(c2cccc(OC(=O)CC(C)(C)CC(=O)Nc3ccc(C(=O)O)cc3)c2)CCCCN(C)C1 (centres unmarked) [Meptazinol [3,3-dimethyl-glutaryl-PABA]ester]",systemic levels of meptazinol versus expected Cmax after the drug itself,[1],improved systemic levels of meptazinol
same,Dog Cmax (plasma meptazinol),[1]; oral gavage of prodrug,9.4 ng/mL
same,"Dog Cmax (plasma prodrug levels, in brackets)",[1]; [4],25 ng/mL
same,Monkey Cmax (plasma meptazinol),[2],1.3 ng/mL
same,"Monkey Cmax (plasma prodrug levels, in brackets)",[2],BLQ
same,improvement in systemic levels of meptazinol,[2],not seen in the monkey
same,"2 h stability in pH7.4 buffer (37° C.), Conversion to meptazinol",[3],93%
same,"1 h stability in simulated gastric fluid (37° C.), Conversion to meptazinol",[3],1%
same,"2 h stability in simulated intestinal fluid (37° C.), Conversion to meptazinol",[3],5%
CCC1(c2cccc(OC(=O)C=CC(=O)Nc3ccc(C(=O)O)cc3)c2)CCCCN(C)C1 (centres unmarked) [Meptazinol [fumaryl-PABA] ester],Dog Cmax (plasma meptazinol),[1]; oral gavage of prodrug,1.5 ng/mL
same,"Dog Cmax (plasma prodrug levels, in brackets)",[1]; [4],BLQ
same,Monkey Cmax (plasma meptazinol),[2],1.4 ng/mL
same,"Monkey Cmax (plasma prodrug levels, in brackets)",[2],BLQ
same,"2 h stability in pH7.4 buffer (37° C.), Conversion to meptazinol",[3],47%
same,"1 h stability in simulated gastric fluid (37° C.), Conversion to meptazinol",[3],2%
same,"2 h stability in simulated intestinal fluid (37° C.), Conversion to meptazinol",[3],6%
CCC1(c2cccc(OC(=O)CCCC(=O)N[C@H](C(=O)O)C(C)C)c2)CCCCN(C)C1 (stereo partly drawn) [Meptazinol [glutaryl-(S)-valine] ester],systemic levels of meptazinol versus expected Cmax after the drug itself,[1],improved systemic levels of meptazinol
same,"Dog Cmax (plasma prodrug levels, in brackets)",[1]; [4],2.8 ng/mL
same,improvement in systemic levels of meptazinol,[2],not seen in the monkey
CCC1(c2cccc(OC(=O)/C=C\C(=O)N[C@@H](Cc3ccccc3)C(=O)O)c2)CCCCN(C)C1 (stereo partly drawn) [Meptazinol [malearyl-(S)-phenylanine] ester],"Dog Cmax (plasma prodrug levels, in brackets)",[1]; [4],1.7 ng/mL
CCC1(c2cccc(OC(=O)/C=C\C(=O)N[C@H](C(=O)O)C(C)C)c2)CCCCN(C)C1 (stereo partly drawn) [Meptazinol [malearyl-(S)-valine] ester],Cmax,"[1]; beagle, plasma, oral gavage of prodrug, prodrug level, BLQ = below 0.5 ng/mL, read-out: Dog Cmax (plasma prodrug levels, in brackets)",6 ng/mL
same,"Monkey Cmax (plasma prodrug levels, in brackets)",[2],BLQ
CCC1(c2cccc(OC(=O)CC(=O)NC(C(=O)O)C(C)C)c2)CCCCN(C)C1 [Meptazinol [malonyl-(S)-valine] ester],"Dog Cmax (plasma prodrug levels, in brackets)",[1]; [4],44 ng/mL
CCC1(c2cccc(OC(=O)CC(=O)Nc3ccc(C(=O)O)cc3)c2)CCCCN(C)C1 (centres unmarked) [Meptazinol [malonyl-PABA] ester],Dog Cmax (plasma meptazinol),[1]; oral gavage of prodrug,2.1 ng/mL
